In PubChem BioAssay (NCI):
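Cultured in 96-well plates, cells were exposed to test compound for 48 hours across five concentrations. The concentration for 50% growth inhibition is given as GI50. The concentration for full growth arrest is given as TGI.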

Experiments:
Test in all cases: NCI-60 cell line screen, 48 h
[1] = test system: SK-MEL-2 melanoma
[2] = test system: SN12C renal
[3] = test system: MCF7 breast
[4] = test system: HOP-62 NSCLC
[5] = test system: ACHN renal
[6] = test system: SW-620 colon
[7] = test system: BT-549 breast
[8] = test system: CCRF-CEM leukemia
[9] = test system: MDA-MB-468 breast
[10] = test system: T-47D breast
[11] = test system: UACC-62 melanoma
[12] = test system: SNB-19 CNS
[13] = test system: OVCAR-4 ovarian
[14] = test system: MALME-3M melanoma
[15] = test system: SK-OV-3 ovarian
[16] = test system: KM12 colon
[17] = test system: MOLT-4 leukemia
[18] = test system: PC-3 prostate
[19] = test system: SF-539 CNS
[20] = test system: UACC-257 melanoma
[21] = test system: SK-MEL-5 melanoma
[22] = test system: IGROV1 ovarian
[23] = test system: HCC-2998 colon
[24] = test system: OVCAR-8 ovarian
[25] = test system: HCT-116 colon
[26] = test system: CAKI-1 renal
[27] = test system: A549 NSCLC
[28] = test system: OVCAR-3 ovarian
[29] = test system: NCI-H460 lung
[30] = test system: OVCAR-5 ovarian
[31] = test system: SF-268 CNS
[32] = test system: NCI/ADR-RES ovarian
[33] = test system: UO-31 renal
[34] = test system: K-562 leukemia
[35] = test system: HCT-15 colon
[36] = test system: SF-295 CNS
[37] = test system: DU-145 prostate
[38] = test system: HOP-92 NSCLC
[39] = test system: EKVX NSCLC
[40] = test system: SNB-75 CNS
[41] = test system: TK-10 renal
[42] = test system: RXF 393 renal
[43] = test system: 786-0 renal
[44] = test system: RPMI-8226 leukemia
[45] = test system: SR leukemia
[46] = test system: HT29 colon
[47] = test system: U251 CNS
[48] = test system: A498 renal
[49] = test system: MDA-MB-435
[50] = test system: NCI-H226 lung
[51] = test system: NCI-H23 lung
[52] = test system: COLO 205 colon
[53] = test system: LOX IMVI melanoma
[54] = test system: SK-MEL-28 melanoma
[55] = test system: M14 melanoma
[56] = test system: MDA-MB-231 breast
[57] = test system: HL-60(TB) leukemia
[58] = test system: NCI-H522 lung
[59] = test system: HS 578T breast

## COc1cc2c(cc1OC)/C(=C\c1sc(Nc3ccc(O)cc3)nc1O)C(C(=O)O)=N2
[1]
  GI50: 0.586 µM
  TGI: 86.3 µM
[2]
  GI50: 2.05 µM
  TGI: > 100 µM
[3]
  GI50: 0.394 µM
  TGI: > 100 µM
[4]
  GI50: 0.62 µM
  TGI: 59.1 µM
[5]
  GI50: 6.53 µM
  TGI: > 100 µM
[6]
  GI50: 0.449 µM
  TGI: > 100 µM
[7]
  GI50: 0.654 µM
  TGI: 75 µM
[8]
  GI50: 0.413 µM
  TGI: > 100 µM
[9]
  GI50: 1.12 µM
  TGI: 5.29 µM
[10]
  GI50: 2.91 µM
  TGI: > 100 µM
[11]
  GI50: 0.498 µM
  TGI: > 100 µM
[12]
  GI50: 0.462 µM
  TGI: 27.8 µM
[13]
  GI50: 4.57 µM
  TGI: > 100 µM
[14]
  GI50: 0.336 µM
  TGI: > 100 µM
[15]
  GI50: 0.817 µM
  TGI: > 100 µM
[16]
  GI50: 0.557 µM
  TGI: > 100 µM
[17]
  GI50: 0.446 µM
  TGI: > 100 µM
[18]
  GI50: 0.666 µM
  TGI: > 100 µM
[19]
  GI50: 0.456 µM
  TGI: 2.76 µM
[20]
  GI50: 1.91 µM
  TGI: > 100 µM
[21]
  GI50: 0.51 µM
  TGI: 28.4 µM
[22]
  GI50: 2.7 µM
  TGI: > 100 µM
[23]
  GI50: 0.631 µM
  TGI: > 100 µM
[24]
  GI50: 0.775 µM
  TGI: > 100 µM
[25]
  GI50: 0.489 µM
  TGI: > 100 µM
[26]
  GI50: 95.5 µM
  TGI: > 100 µM
[27]
  GI50: 21.6 µM
  TGI: > 100 µM
[28]
  GI50: 0.287 µM
  TGI: 0.797 µM
[29]
  GI50: 0.954 µM
  TGI: > 100 µM
[30]
  GI50: 4.51 µM
  TGI: > 100 µM
[31]
  GI50: 0.581 µM
  TGI: > 100 µM
[32]
  GI50: > 100 µM
  TGI: > 100 µM
[33]
  GI50: 4.2 µM
  TGI: > 100 µM
[34]
  GI50: 0.369 µM
  TGI: > 100 µM
[35]
  GI50: 0.783 µM
  TGI: > 100 µM
[36]
  GI50: 0.498 µM
  TGI: 14.1 µM
[37]
  GI50: 0.588 µM
  TGI: 33.3 µM
[38]
  GI50: 5.89 µM
  TGI: 91.6 µM
[39]
  GI50: 11.2 µM
  TGI: > 100 µM
[40]
  GI50: 0.217 µM
  TGI: 2.95 µM
[41]
  GI50: 5.73 µM
  TGI: > 100 µM
[42]
  GI50: 0.527 µM
  TGI: 3.21 µM
[43]
  GI50: 0.513 µM
  TGI: 45.1 µM
[44]
  GI50: 5.17 µM
  TGI: > 100 µM
[45]
  GI50: 0.277 µM
  TGI: > 100 µM
[46]
  GI50: 2.83 µM
  TGI: 26 µM
[47]
  GI50: 0.353 µM
  TGI: 16.7 µM
[48]
  GI50: 32.1 µM
  TGI: > 100 µM
[49]
  GI50: 0.187 µM
  TGI: 0.389 µM
[50]
  GI50: 16.6 µM
  TGI: > 100 µM
[51]
  GI50: 0.815 µM
  TGI: 41.8 µM
[52]
  GI50: 1.44 µM
  TGI: 9.07 µM
[53]
  GI50: 0.501 µM
  TGI: > 100 µM
[54]
  GI50: 0.842 µM
  TGI: > 100 µM
[55]
  GI50: 0.376 µM
  TGI: 30 µM
[56]
  GI50: 1.32 µM
  TGI: 63.3 µM
[57]
  GI50: 0.291 µM
  TGI: 0.986 µM

## Cc1ccc(C(=O)NN2C(=O)/C(=C/C=C/c3ccc([N+](=O)[O-])o3)SC2=S)cc1
[1]
  GI50: 0.283 µM
  TGI: 0.904 µM
[2]
  GI50: 0.207 µM
  TGI: 0.535 µM
[3]
  GI50: 0.413 µM
  TGI: 1.89 µM
[4]
  GI50: 1.6 µM
  TGI: 3.12 µM
[5]
  GI50: 0.684 µM
  TGI: 1.86 µM
[6]
  GI50: 0.181 µM
  TGI: 0.389 µM
[7]
  GI50: 0.218 µM
  TGI: 0.705 µM
[8]
  GI50: 0.238 µM
  TGI: 0.826 µM
[9]
  GI50: 1.5 µM
  TGI: 3.12 µM
[10]
  GI50: 1.73 µM
  TGI: 3.48 µM
[11]
  GI50: 0.378 µM
  TGI: 1.21 µM
[12]
  GI50: 1.61 µM
  TGI: 3.01 µM
[13]
  GI50: 1.6 µM
  TGI: 3.1 µM
[14]
  GI50: 0.177 µM
  TGI: 0.378 µM
[15]
  GI50: 1.77 µM
  TGI: 3.35 µM
[16]
  GI50: 1.16 µM
  TGI: 4.49 µM
[58]
  GI50: 0.185 µM
  TGI: 0.363 µM
[17]
  GI50: 0.294 µM
  TGI: 2.67 µM
[18]
  GI50: 1.14 µM
  TGI: 3 µM
[19]
  GI50: 0.251 µM
  TGI: 0.718 µM
[20]
  GI50: 1.67 µM
  TGI: 3.55 µM
[21]
  GI50: 0.337 µM
  TGI: 1.24 µM
[22]
  GI50: 0.811 µM
  TGI: 2.11 µM
[23]
  GI50: 0.486 µM
  TGI: 1.72 µM
[24]
  GI50: 0.292 µM
  TGI: 1.02 µM
[25]
  GI50: 0.139 µM
  TGI: 0.29 µM
[26]
  GI50: 0.911 µM
  TGI: 2.19 µM
[27]
  GI50: 2.18 µM
  TGI: 5.9 µM
[28]
  GI50: 0.752 µM
  TGI: 2.63 µM
[29]
  GI50: 0.399 µM
  TGI: 1.57 µM
[30]
  GI50: 1.43 µM
  TGI: 2.79 µM
[31]
  GI50: 1.96 µM
  TGI: 4.82 µM
[32]
  GI50: 1.22 µM
  TGI: 2.88 µM
[33]
  GI50: 1.21 µM
  TGI: 2.45 µM
[34]
  GI50: 0.188 µM
  TGI: 3.48 µM
[35]
  GI50: 0.125 µM
  TGI: 0.295 µM
[36]
  GI50: 1.76 µM
  TGI: 3.48 µM
[37]
  GI50: 1.5 µM
  TGI: 2.92 µM
[38]
  GI50: 0.245 µM
  TGI: 0.893 µM
[39]
  GI50: 0.543 µM
  TGI: 1.85 µM
[40]
  GI50: 1.3 µM
  TGI: 3.17 µM
[41]
  GI50: 1.68 µM
  TGI: 3.58 µM
[42]
  GI50: 0.789 µM
  TGI: 2.14 µM
[43]
  GI50: 0.451 µM
  TGI: 1.62 µM
[44]
  GI50: 0.267 µM
  TGI: 1.17 µM
[45]
  GI50: 0.0468 µM
  TGI: > 100 µM
[46]
  GI50: 0.222 µM
  TGI: 0.542 µM
[47]
  GI50: 0.701 µM
  TGI: 1.97 µM
[48]
  GI50: 9.16 µM
  TGI: 22.9 µM
[49]
  GI50: 0.267 µM
  TGI: 0.8 µM
[50]
  GI50: 0.509 µM
  TGI: 1.24 µM
[51]
  GI50: 0.337 µM
  TGI: 1.17 µM
[52]
  GI50: 0.348 µM
  TGI: 1.07 µM
[59]
  GI50: 1.86 µM
  TGI: 6.54 µM
[53]
  GI50: 0.179 µM
  TGI: 0.352 µM
[54]
  GI50: 1.09 µM
  TGI: 2.31 µM
[55]
  GI50: 0.202 µM
  TGI: 0.436 µM
[56]
  GI50: 0.185 µM
  TGI: 0.373 µM
[57]
  GI50: 1.88 µM
  TGI: 10.5 µM
